In ChEMBL document CHEMBL1123332, “Synthesis and anti-herpes-virus activity of acyclic 2'-deoxyguanosine analogues related to 9-[(1,3-dihydroxy-2-propoxy)methyl]guanine” (1986):

What was measured:
[1] = Antiviral activity determined against herpes simplex type 1 (F strain) by plaque reduction in Vero cells; type: functional; conditions: Chlorocebus sabaeus, read-out: ID50 (the source's name)
Mus musculus [2] = experiment: Mean survival time of HSV-2 encephalitis infectuous mice upon subcutaneous treatment with the compound at a dose of 20 mg/kg; type: functional
Mus musculus [3] = experiment: Effect of subcutaneous treatment with the compound on HSV-2 encephalitis infection in mice at a dose of 20 mg/kg; 10/16; type: functional
[4] = tested on: Thymidine kinase (Human alphaherpesvirus 1); experiment: Phosphorylation of compound by purified HSV-1 (F strain) thymidine kinase; design: concentration or dose not given beside the values
Mus musculus [5] = experiment: Effect of subcutaneous treatment with the compound on HSV-2 encephalitis infection in mice at a dose of 20 mg/kg; 2/10; type: functional
Mus musculus [6] = experiment: Effect of subcutaneous treatment with the compound on HSV-2 encephalitis infection in mice at a dose of 20 mg/kg; 3/10; type: functional

Row | SMILES | IC50 [1] [µM] | MST (Mus musculus [2]) [days] | Survivors (Mus musculus [3]) | Activity [4] [%] | Survivors (Mus musculus [5]) | Survivors (Mus musculus [6])
1 | Nc1nc2c(ncn2COCCO)c(=O)[nH]1 [ACYCLOVIR] | 0.5 |  |  |  |  | 
2 | Nc1nc2c(ncn2COC(CO)CO)c(=O)[nH]1 [GANCICLOVIR] | 0.2 | 13.5 | 10 |  |  | 
3 | Nc1nc(O)c2ncn(CO[C@H](CO)CCO)c2n1 | 95 |  |  | 111 |  | 
4 | C[C@@H](CO)OCn1cnc2c(O)nc(N)nc21 | 2.3 |  |  | 28 |  | 
5 | CC(CO)(CO)COCn1cnc2c(O)nc(N)nc21 | > 100 |  |  | 100 |  | 
6 | Nc1nc(O)c2ncn(CO[C@H](CO)CCl)c2n1 | 60 |  |  | 33 |  | 
7 | Nc1nc(O)c2ncn(CO[C@H](CO)CF)c2n1 | > 7 | 8.5 |  | 67 | 2 | 
8 | Nc1nc(O)c2ncn(CCOC(CO)CO)c2n1 | > 100 |  |  | 35 |  | 
9 | Nc1nc(O)c2ncn(CO[C@H](CO)COC3CCCC3)c2n1 | 40 |  |  | 21 |  | 
10 | Nc1nc2c(ncn2CC(CO)CO)c(=O)[nH]1 [TIVICICLOVIR] | > 100 |  |  |  |  | 
11 | [N-]=[N+]=NC[C@@H](CO)OCn1cnc2c(O)nc(N)nc21 | > 100 |  |  | 25 |  | 
12 | NC[C@@H](CO)OCn1cnc2c(O)nc(N)nc21 | 32 |  |  | < 10 |  | 
13 | Nc1nc(O)c2ncn(COCCOC(CO)CO)c2n1 | > 7 | 10.3 |  | 23 |  | 3
14 | COC[C@@H](CO)OCn1cnc2c(O)nc(N)nc21 | 70 |  |  | 32 |  | 
